Test system: Naïve CD8+ T cells
Excerpt: Naïve CD8+ T cells were isolated from mouse spleen. Cells were activated at a cell density of 10^6 cells/mL using plate-bound αCD3/αCD28+100 U/mL TL2 in RPMI containing 10% FBS.

## O=CO [formate]
1 mM formate in media, from 9.5 μm without formate
  cell size at day 1 post activation: 10.2 μm
1 mM formate, from 78% without formate
  extent of cells showing cell surface activation markers (CD25+, CD69+): 88%
formate, p<0.005
  reduction of NADH concentration: 1.8 fold
Growing CD8+ T cells, from 10% without formate
  dead cells: 5%
